Data reported in the NIST ThermoML archive (doi:10.1016/j.tca.2018.11.010).
± gives the expanded uncertainty stated by the source.

Test: wn = mass fraction of the nth substance listed
Settings: 298 K; 100 kPa; Liquid; Laser flash apparatus; w1 = 0.9

thermal conductivity: 0.2513 ± 0.0057 W/m/K
SMILES: CCCCCCCC/C=C\CCCCCCCC(=O)O [(Z)-9-octadecenoic acid] + CCCCCCCCCCCCCC(=O)O
